The test system of test [1] is DNA methyltransferase activity of HeLa nuclear extracts. The experiment in a line: Test E experiment 3: DNA methyltransferase activity of purified HeLa nuclear extracts incubated in vitro with compound (EpiQuik kit). In kind it is biochemical. The conditions noted are these: experiment 3: 20 μg HeLa nuclear extracts incubated in vitro with 500 nM; untreated 0.264. The method, then: (§1) Test E The Methyltransferase Activity of the Compound of Example 1 was Evaluated as Follows.
(§2) For experiments 1 and 2, A549 non-small cell lung cancer cells were incubated with the compound of Example 1 (1 μM final concentration) or vehicle (untreated) for 2 h and nuclear extracts were prepared by standard methods. The total DNA methyltransferase activity of the extracts was measured using EpiQuik™ DNA Methyltransferase Activity/Inhibition Assay Kit (Epigentek, Brooklyn, N.Y.), according to the manufacturer's directions. For experiment 3, the assay was carried out using purified HeLa nuclear extracts in the presence of the compound of Example 1 (500 nM final concentration) or vehicle (untreated).
(§3) The assay involves incubation of nuclear extracts (as a source of DNA methyltransferase activity) with immobilized DNA substrate in the presence of Adomet (methyl donor). The DNA methyltransferase activity was measured by determining levels of 5-methylcytosine in the DNA substrate using a primary antibody to 5-methylcytosine and a secondary antibody for colorimetric detection at 450 nm.

Test [2] relates to A549 human non-small cell lung cancer xenografts. The test is classed as in vivo. From the text: FIG. 2. […] (A) Tumor growth appeared to be reduced in mice treated with the compound of Example 1, but the effect was not statistically significant (p≧0.13). […] Compare with the mean±SE in the control group.
Test F In-vivo Effects of Compound of Example 1.
The following study was designed to assess toxicity and activity in female nude mice bearing A549 human non-small cell lung cancer xenografts. Athymic nude mice were inoculated subcutaneously (s.c.) with A549 cells and treatment began after small tumors were visible. The compound of Example 1 was prepared at 100 mg/ml or 50 mg/ml in DMSO and diluted 1:10 with sterile PBS. Mice were treated by intraperitoneal (i.p.) injections of 100 μl of these solutions, equivalent to approximately 25 mg/kg or 50 mg/kg; the control group received identical injections of vehicle (10% DMSO in PBS). Mice received injections of the compound of Example 1 or vehicle five times per week (once per day, except on weekends) for up to 30 injections. […] Evaluating the long-term outcome was complicated by the fact that several animals in the compound of Example 1 treated groups developed tumor necrosis/ulceration and had to be euthanized before the end of the experiment, as required by IACUC protocol. This tumor necrosis is believed to be treatment-related as it occurred in 5/12 treated animals, but 0/6 of the control group. […] The overall response seemed to be equivalent or better in the low dose group compared with the high dose group, but that may be consistent with the mechanism of action, since a similar effect has been observed for decitabine in humans.

Test [3] concerns total DNA methyltransferase activity in A549 non-small cell lung cancer cells. The experiment in a line: Test E experiments 1 and 2: DNA methyltransferase activity of nuclear extracts from treated A549 cells (EpiQuik kit). The test is classed as cell-based, human. As to the method:
as §1, §2, §3

In test [4] the test system is panel of 60 human tumor cell lines. The experiment in a line: Test D: screen against a panel of 60 human tumor cell lines. In kind it is cell-based. From the text:
Test D Anti-Cancer Activity
The compound of Example 1 below was screened against a panel of 60 human tumor cell lines.

On to `CCCCCC(O)C#CC(F)(F)Br` (stereo not drawn) [Example 1, 1-bromo-1,1-difluoro-non-2-yn-4-ol], for which the “Relative DNA Methyltransferase Activity” value is given as 0.092 in test [1]; 0.073 in test [3] (experiment 1: nuclear extracts from lung cancer cells treated 1 μM for 2 h, untreated 0.114); 0.075 in test [3] (experiment 2 (repeat): nuclear extracts from lung cancer cells treated 1 μM for 2 h, untreated 0.122). In addition, in test [2] (approx. 25 or 50 mg/kg i.p., 0/6 in the control group), the “tumor necrosis/ulceration, treated animals affected” value is 5/12. Moreover, in test [2] (approx. 25 or 50 mg/kg i.p., difference not statistically significant (p≧0.13)), the “tumor growth compared to control-treated mice” value is given as “grew slower”. For the same compound, the “size of ulcerated tumors versus control group at the same time point” value in test [2] (treated mice euthanized early due to tumor necrosis) is reported as “substantially smaller”. The concentration for 50% growth inhibition (GI50) in test [4] (Homo sapiens, all seven breast cancer cell lines, including a doxorubicin-resistant line) is 10 to 66 nM. For the same compound, the “activity by tumor type” value was “highly active” in test [4] (breast, prostate, colon and brain (CNS) tumor cells); “less potent” in test [4] (other tumor types, e.g. melanomas).

(Values after US8703829B2, “Therapeutic compounds” (University of Louisville Research Foundation, Inc., priority 2007, dated 2014).)
